The values that follow come from PubChem BioAssay (NCI).

Some test systems named below: A549 NSCLC; COLO 205 colon; K-562 leukemia; KM12 colon; NCI-H23 lung; OVCAR-4 ovarian; SF-295 CNS; SF-539 CNS; SK-OV-3 ovarian.
What all share (experiment): NCI-60 cell line screen, 48 h

The structures appear in SMILES notation.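 Where inhibition never reached the appropriate level, the endpoint shown equals the highest concentration tested. Otherwise, values were interpolated linearly from a five-concentration, 48-hour dose response in 96-well plates. GI50 = concentration required for 50% inhibition of growth. TGI: total growth inhibition.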

On to `O=c1nc2occc2cn1C1CC(O)C(CO)O1` (configuration not stated), for which the TGI in the assay on A549 NSCLC, with COLO 205 colon, with K-562 leukemia, in the assay on KM12 colon, with NCI-H23 lung and in the assay with OVCAR-4 ovarian was more than 100 µM each time. Also, the TGI with SF-295 CNS, with SF-539 CNS and in the assay on SK-OV-3 ovarian was more than 100 µM each time.
For `CC(=O)O.CC(=O)O.CC(=O)O.CC(=O)O.CC(=O)O.CC(=O)O.O.[Ti].[Ti]`, the GI50 with A549 NSCLC, in the assay on COLO 205 colon, in the assay with K-562 leukemia, in the assay with KM12 colon, in the assay on OVCAR-4 ovarian and in the assay on SF-295 CNS was more than 100 µM throughout. The GI50 with SF-539 CNS is more than 100 µM. For the same molecule, the TGI in the assay with A549 NSCLC, with COLO 205 colon, in the assay with K-562 leukemia, in the assay on KM12 colon, in the assay on OVCAR-4 ovarian and in the assay on SF-295 CNS was more than 100 µM each time. Also, the TGI with SF-539 CNS was more than 100 µM.
`O=[n+]1c2c(n([O-])c3ccccc31)CCCCCCCCCC2`: the TGI with A549 NSCLC, with K-562 leukemia, in the assay with KM12 colon, in the assay with NCI-H23 lung, with SF-295 CNS and in the assay with SF-539 CNS was more than 100 µM throughout. For the same molecule, the TGI in the assay on SK-OV-3 ovarian is more than 100 µM.
Turning to `Cc1ccccc1N1C(=O)/C(=C/c2ccc(N(CCC#N)CCC#N)cc2)N=C1c1cc([N+](=O)[O-])ccc1Cl`, the TGI in the assay with COLO 205 colon was 72 µM; in the assay on K-562 leukemia, more than 100 µM; in the assay with KM12 colon, more than 100 µM; in the assay on NCI-H23 lung it was more than 100 µM; with OVCAR-4 ovarian it was more than 100 µM; in the assay with SF-295 CNS, more than 100 µM. Moreover, the TGI in the assay on SF-539 CNS and in the assay with SK-OV-3 ovarian was more than 100 µM each time.
Take `C=C(C=O)[C@@H]1C2OC(=O)C(=C)[C@@H]2CC(O)[C@@]1(C)CC` (some centres not stated): the TGI was more than 100 µM in the assay on A549 NSCLC; 11.7 µM in the assay with COLO 205 colon; 22.6 µM with K-562 leukemia; 37.2 µM with KM12 colon; 13.3 µM in the assay with NCI-H23 lung; more than 30.2 µM in the assay with OVCAR-4 ovarian. For the same molecule, the TGI with SF-295 CNS came to 57.2 µM; in the assay on SF-539 CNS, 23.6 µM; in the assay with SK-OV-3 ovarian it was 99.9 µM.
Take `COc1ccc(OC)c(NC(=O)C(=O)NNC(=O)c2sc(NNC(C)=O)nc2C)c1`: the TGI with A549 NSCLC was more than 100 µM; with K-562 leukemia it was 43.1 µM; with KM12 colon, more than 100 µM; in the assay with NCI-H23 lung it was 68.8 µM; in the assay on OVCAR-4 ovarian, 71.2 µM; with SF-295 CNS it was more than 100 µM. For the same molecule, the TGI is 82.3 µM with SF-539 CNS and more than 100 µM with SK-OV-3 ovarian.
Consider `CSc1nc2c(nc(C)c(=O)n2C2OCC(OC(C)=O)C(OC(C)=O)C2OC(C)=O)c(=O)[nH]1` (configuration not stated), for which the TGI with A549 NSCLC, in the assay on COLO 205 colon, in the assay on K-562 leukemia, with KM12 colon, in the assay with NCI-H23 lung and in the assay with OVCAR-4 ovarian was more than 100 µM in each case. In addition, the TGI in the assay with SF-295 CNS and with SK-OV-3 ovarian was more than 100 µM each time.
With `O=C1CCCC/C(=C/c2ccccc2)N1`, the TGI with A549 NSCLC, in the assay on COLO 205 colon, with K-562 leukemia, with KM12 colon, in the assay with NCI-H23 lung and with OVCAR-4 ovarian was more than 100 µM in each case. The TGI in the assay on SF-295 CNS, in the assay on SF-539 CNS and in the assay on SK-OV-3 ovarian was more than 100 µM each time.
As for `O=C(Nc1nc2ncn(CCI)c2c(=O)[nH]1)c1ccccc1`, the TGI with A549 NSCLC, in the assay with COLO 205 colon, in the assay on K-562 leukemia, in the assay on KM12 colon, in the assay on NCI-H23 lung and with OVCAR-4 ovarian was more than 100 µM in each case. Moreover, the values for the TGI in the assay with SF-295 CNS, with SF-539 CNS and with SK-OV-3 ovarian were more than 87.4 µM, more than 64.6 µM and 90.5 µM, respectively.
Consider `Cc1ccc(SC(C)/C=C/NNC2=NC(c3ccccc3)C(c3ccccc3)=NN2)cc1` (configuration not stated), for which the TGI in the assay on A549 NSCLC, in the assay on COLO 205 colon, with K-562 leukemia, in the assay with KM12 colon, in the assay with NCI-H23 lung and in the assay with OVCAR-4 ovarian was more than 100 µM each time. The TGI in the assay on SF-295 CNS, with SF-539 CNS and in the assay with SK-OV-3 ovarian was more than 100 µM throughout.
Regarding `CC(O)C(N=Cc1ccccc1[O-])C(=O)[O-].CC(O)C(N=Cc1ccccc1[O-])C(=O)[O-].[Co+2]` (configuration not stated), the GI50 in the assay with A549 NSCLC was more than 100 µM; in the assay on COLO 205 colon it was more than 100 µM; in the assay on K-562 leukemia, 98.4 µM; with KM12 colon it was more than 100 µM; in the assay with NCI-H23 lung, more than 100 µM; in the assay on SF-295 CNS it was more than 100 µM. In addition, the GI50 with SF-539 CNS was more than 100 µM; with SK-OV-3 ovarian, 70.9 µM. Besides, the TGI in the assay on A549 NSCLC, with COLO 205 colon, in the assay on K-562 leukemia, in the assay on KM12 colon, in the assay with NCI-H23 lung and with SF-295 CNS was more than 100 µM throughout. In addition, the TGI with SF-539 CNS and with SK-OV-3 ovarian was more than 100 µM in each case.
Turning to `CCOP(=O)(Cc1ccc(CP(=O)(OCC)OCC)n1C)OCC`, the TGI with A549 NSCLC, in the assay with COLO 205 colon, in the assay on K-562 leukemia, in the assay on KM12 colon, with NCI-H23 lung and with OVCAR-4 ovarian was more than 100 µM each time. The TGI in the assay with SF-295 CNS, in the assay on SF-539 CNS and in the assay with SK-OV-3 ovarian was more than 100 µM each time.
In the case of `O=C(O)CNc1cc(-c2ccccc2)nc(NCC(=O)O)n1`, the TGI with A549 NSCLC, with COLO 205 colon, with K-562 leukemia, with KM12 colon, with NCI-H23 lung and with OVCAR-4 ovarian was more than 100 µM each time. Also, the TGI in the assay with SF-295 CNS, in the assay on SF-539 CNS and with SK-OV-3 ovarian was more than 100 µM in each case.
Take `CC(C)(C)OC(=O)NCC(=O)OCc1ccccc1`: the TGI in the assay with A549 NSCLC, in the assay with COLO 205 colon, with K-562 leukemia, in the assay on KM12 colon, with NCI-H23 lung and with SF-295 CNS was more than 100 µM in each case. Also, the TGI with SF-539 CNS and with SK-OV-3 ovarian was more than 100 µM throughout.
